A short description of series [1]: Human liver microsome (HLM) assay. Format: in vitro ADME. Conditions: human liver microsomes, 5 μM test compound. How it is done:
Human Liver Microsome (HLM) Assay Compound metabolism in human liver microsomes was measured by LC-MS analytical assay procedures as follows. […] (3 tubes per test compound-triplicate). […] The samples were then transferred to separate polypropylene microcentrifuge tubes and centrifuged at 14000 g for 10 min. (Fisher Micro […] M0017580). For each replicate (#1-3) at each timepoint (0 and 2 h), an aliquot sample of each test compound was combined into a single HPLC vial insert (6 total samples) for LC-MS analysis, which is described below.
In general terms: Microsomes from liver hold many membrane-bound enzymes, among them those of drug oxidation.

Series [2] has as its target unphosphorylated VEGF-R2Δ50 (FLVK) (Homo sapiens, UniProt P35968, DEL940-989/E990V). Nature of the series: VEGF-R2 coupled spectrophotometric assay, unphosphorylated VEGF-R2Δ50 (FLVK). Conditions: for Ki: FLVK Ki, Table 1; for inhibition at 0.05 µM: read-out: FLVK % inhibition.
The nature of series [3]: Determination of inhibitor concentration in mouse plasma after intraperitoneal and oral dosing. It counts as in vivo. How it is done: Blood collection was via ocular bleed at 0.5, 1, 4 hr with the final time point, 7 hour, via intracardiac puncture. The blood was centrifuged to collect plasma, which was then stored at −80° C. until analysis. Samples were prepared for analysis using an internal standard and sodium hydroxide. After vortexing, ethyl acetate was added and mixed for 15-20 minutes at ambient temperature. […] The samples were then analyzed via HPLC or LC-MS. Compound levels were quantitated by generating a standard curve of known compound concentration in mouse plasma.

In series [4] the test system is human umbilical vein endothelial cells (HUVEC). The series can be described thus: HUVEC proliferation assay (VEGF-stimulated, MTT). It counts as cell-based. Conditions: Homo sapiens, HUVEC.
Where [5] appears, read: IP, 25 mg/kg, vehicle PEG400:H2O pH 2.3 30:70.
Where [6] appears, read: PO, 50 mg/kg, vehicle PEG400:H2O pH 2.3 30:70.
Where [7] appears, read: female, IP, 25 mg/kg, vehicle PEG400:H2O pH 2.3 30:70.
[8] abbreviates: female, IP, 25 mg/kg, vehicle PEG400:H2O pH 2.3 30:70, read-out: Cmin (7 hr conc.).
Setting [9] is: female, PO, 50 mg/kg, vehicle PEG400:H2O pH 2.3 30:70, read-out: Cmin (7 hr conc.).
Where [10] appears, read: female, PO, 25 mg/kg, vehicle PEG400:H2O pH 2.3 30:70.
Where [11] appears, read: female, PO, 25 mg/kg, vehicle PEG400:H2O pH 2.3 30:70, read-out: Cmin (7 hr conc.).
[12] abbreviates: PO, 25 mg/kg, vehicle PEG400:H2O pH 2.3 30:70.
Where [13] appears, read: + albumin, read-out: HUVEC + albumin IC50.
The mark [14] stands for this setting: IP, 25 mg/kg, vehicle PEG400:H2O pH 2.3 60:40.
Where [15] appears, read: PO, 50 mg/kg, vehicle PEG400:H2O pH 2.3 60:40.
Where [16] appears, read: female, IP, 25 mg/kg, vehicle PEG400:H2O pH 2.3 60:40, read-out: Cmin (7 hr conc.).
Setting [17] is: female, PO, 50 mg/kg, vehicle PEG400:H2O pH 2.3 60:40, read-out: Cmin (7 hr conc.).

Where two headings read alike, the source gives them in different places.

Chain of unphosphorylated VEGF-R2Δ50 (FLVK) (P35968 with tags, fused parts or gaps DEL940-989/E990V limits assumed): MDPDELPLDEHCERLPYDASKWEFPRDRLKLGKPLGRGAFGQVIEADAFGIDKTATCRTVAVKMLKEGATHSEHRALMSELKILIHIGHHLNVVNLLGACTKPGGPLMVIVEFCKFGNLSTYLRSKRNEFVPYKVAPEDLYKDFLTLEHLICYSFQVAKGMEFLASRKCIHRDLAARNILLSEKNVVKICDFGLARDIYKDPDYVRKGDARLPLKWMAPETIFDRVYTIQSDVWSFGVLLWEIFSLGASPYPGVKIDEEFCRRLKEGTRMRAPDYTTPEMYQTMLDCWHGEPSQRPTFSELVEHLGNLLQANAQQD

In the case of `O=C(N[C@@H]1C[C@H]1c1ccccc1)c1ccccc1Sc1ccc2c(/C=C/c3ccccn3)n[nH]c2c1` (racemic) [Example 34], the “% remain (HLM, 2 h)” value in series [1] is on record as 28%.
Same read-out and setting: the value for `O=C(Nc1cccc(Oc2ccc3c(/C=C/c4ccccc4)n[nH]c3c2)c1)c1ccccc1` [Example 4(a), N-[3-(3-Styryl-1H-indazol-6-yloxy)-phenyl]-benzamide] was 35%; that for `CC(=O)Nc1cccc(Sc2ccc3c(/C=C/c4ccccc4)n[nH]c3c2)c1` [Example 20(a), 6-(3-Acetamido-phenylsulfanyl)-3-styryl-1H-indazole] was 52%.
As for `O=C(Nc1cccc(Oc2ccc3c(/C=C/c4ccccc4)n[nH]c3c2)c1)c1cccc2[nH]ccc12` [Example 30(d), 6-[3-(indol-4-ylcarboxamido)phenoxy]-3-E-stryrylindazole], in series [2], the Ki (in general, a dissociation constant, usually derived from enzyme kinetics or from competition with a known ligand) turned out to be 370 pM.
Still for that read-out and setting: as for `CCn1nc(C)cc1C(=O)Nc1cccc(Oc2ccc3c(/C=C/c4ccccc4)n[nH]c3c2)c1` [Example 30(e), 6-[3-((1-Ethyl-3-methyl-1H-pyrazol-5-yl)carboxamido)phenoxy]-3-E-stryrylindazole], the figure is 370 pM.
Take `Cc1cc(C(=O)Nc2cccc(Oc3ccc4c(/C=C/c5ccccn5)n[nH]c4c3)c2)nn1C` [Example 31(b), 6-[3-((1,5-Dimethyl-1H-pyrazol-3-yl)carboxamido)phenoxy]-3-E-[2-(pyridin-2-yl)ethenyl]-1H-indazole]: the “plasma half-life (T1/2)” value in series [3] (setting [5]) worked out at 1.7 h; in series [3] (setting [6]) it was 1.0 h. Also, the AUClast in series [3] (setting [6]) worked out at 2071 ng·h/mL. For the same compound, the AUC(0-t) – broadly, exposure summed from dosing to a finite time, without extrapolation to infinity – in series [3] (setting [7]) is > 7040 ng·h/mL. In addition, the results for the concentration at 7 h in series [3] (setting [8]) and in series [3] (setting [9]) were 177 ng/mL and 15 ng/mL, respectively. In series [2], the Ki was < 100 pM.
In series [3] (setting [6]), `O=C(Nc1cccc(Oc2ccc3c(/C=C/c4c[nH]cn4)n[nH]c3c2)c1)c1ccccc1` [Example 32(a), 6-[3-Benzamidophenoxy]-3-E-[2-(1H-imidazol-4-yl)ethenyl]-1H-indazole] yielded an AUClast of 4190 ng·h/mL. The area under the curve AUC(0-t) in series [3] (setting [7]) is > 20600 ng·h/mL; in series [3] (setting [10]), 490 ng·h/mL. Further, the concentration at 7 h is 1270 ng/mL in series [3] (setting [8]), 18 ng/mL in series [3] (setting [11]) and 40 ng/mL in series [3] (setting [9]). Moreover, the inhibitory constant (Ki) in series [2] was < 100 pM.
For `CCn1nc(C)cc1C(=O)Nc1cccc(Oc2ccc3c(/C=C/c4c[nH]cn4)n[nH]c3c2)c1` [Example 32(b), 6-[3-((1-Ethyl-3-methyl-1H-pyrazol-5-yl)carboxamido)phenoxy]-3-E-[2-(1H-imidazol-4-yl)ethenyl]-1H-indazole], in series [2], the inhibition constant Ki was found to be 80 pM.
Regarding `CCn1nc(C)cc1C(=O)Nc1cccc(Oc2ccc3c(/C=C/c4c[nH]c(C)n4)n[nH]c3c2)c1` [Example 32(c), 6-[3-((1-Ethyl-3-methyl-1H-pyrazol-5-yl)carboxamido)phenoxy]-3-E-[2-(2-methylimidazol-4-yl)ethenyl]-1H-indazole], in series [3] (setting [12]), the AUClast turned out to be 388 ng·h/mL; the Cmax (as a rule, the maximum level reached in the sampled fluid or tissue) came out at 161 ng/mL; the “plasma half-life (T1/2)” value is 2.4 h. Moreover, the concentration at 7 h in series [3] (setting [11]) is 10 ng/mL. The same compound registered a Ki in series [2] of 270 pM.
Consider `O=C(NOCc1ccccc1)c1ccccc1Sc1ccc2c(/C=C/c3ccccn3)n[nH]c2c1` [Example 35(i), 6-[2-(Benzyloxycarbamoyl)phenylsulfanyl]-3-E-[2-(pyridin-2-yl)ethenyl]-1H-indazole], for which the IC50 (as a rule, the midpoint of a concentration-inhibition curve) in series [4] (setting [13]) came out at 4700 pM. For the same compound, the inhibition (usually the share of the control response that was lost under treatment) at 0.05 µM in series [2] was 100%.
As for `NNC(=O)c1ccccc1Sc1ccc2c(/C=C/c3ccccn3)n[nH]c2c1` [Example 35(ii), 6-[2-(Aminocarbamoyl)phenylsulfanyl]-3-E-[2-(pyridin-2-yl)ethenyl]-1H-indazole], in series [2], the inhibition at 0.05 µM was determined as 44%.
Turning to `Nc1ccc(CNC(=O)c2ccccc2Sc2ccc3c(/C=C/c4ccccn4)n[nH]c3c2)cc1` [Example 35(l)], in series [2], the inhibition at 0.05 µM amounted to 90%.
For the compound `O=C(NNC(=O)c1ccccc1Sc1ccc2c(/C=C/c3ccccn3)n[nH]c2c1)c1cccs1` [Example 35(m), 6-[2-((Thien-2-ylhydrazido)carbonyl)phenylsulfanyl]-3-E-[2-(pyridin-2-yl)ethenyl]-1H-indazole], in series [3] (setting [5]), the AUClast is 226 ng·h/mL and the “plasma half-life (T1/2)” value worked out at 4.0 h. In series [3] (setting [12]), this compound had an AUClast of 10 ng·h/mL and a Cmax of 7 ng/mL. The concentration at 7 h in series [3] (setting [8]) came out at 17 ng/mL. In addition, in series [3] (setting [11]), the concentration at 7 h was determined as 0 ng/mL. The same compound gave an inhibition constant (Ki) in series [2] of 40 pM.
For `CNC(=O)c1ccccc1Nc1ccc2c(/C=C/c3ccccn3)n[nH]c2c1` [Example 39(a), 6-[2-(Methylcarbamoyl)phenylamino]-3-E-[2-(pyridin-2-yl)ethenyl]-1H-indazole], the IC50 in series [4] (read-out: HUVEC IC50) amounted to 1400 pM. Further, the “plasma half-life (T1/2)” value in series [3] (setting [12]) came to 1.4 h. Besides, the exposure AUC(0-t) in series [3] (setting [10]) is > 14800 ng·h/mL. Moreover, in series [3] (female, PO, 25 mg/kg, vehicle PEG400:H2O pH 2.3 30:70, read-out: Cmax), the maximum concentration (Cmax) was > 4000 ng/mL. The concentration at 7 h in series [3] (setting [11]) was 219 ng/mL. Also, the inhibition at 0.05 µM in series [2] was determined as 53%.
In the case of `O=C(Nc1cccc(C(=O)c2ccc3c(/C=C/c4ccccn4)n[nH]c3c2)c1)c1ccncc1` [Example 41(b), 6-[3-(Pyridin-4-ylcarboxamido)benzoyl]-3-E-[2-(pyridin-2-yl)ethenyl]-1H-indazole], the “plasma half-life (T1/2)” value in series [3] (setting [14]) amounted to 4.7 h; in series [3] (setting [15]) it was 1.1 h. In series [3] (setting [15]), this compound registered an AUClast of 759 ng·h/mL. Moreover, in series [3] (female, IP, 25 mg/kg, vehicle PEG400:H2O pH 2.3 60:40), the area under the curve AUC(0-t) is > 5870 ng·h/mL. Moreover, the Cmax in series [3] (female, IP, 25 mg/kg, vehicle PEG400:H2O pH 2.3 60:40, read-out: Cmax) is > 1000 ng/mL. The concentration at 7 h in series [3] (setting [16]) was found to be 412 ng/mL; in series [3] (setting [17]), 6 ng/mL. Also, the Ki in series [2] turned out to be 260 pM.
`O=C(c1cccc(NC(=O)C2CC2)c1)c1ccc2c(/C=C/c3ccccn3)n[nH]c2c1` [Example 41(k), 6-[3-(Cyclopropylcarboxanido)benzoyl]-3-E-[2-(pyridin-2-yl)ethenyl]-1H-indazole]: the affinity in series [2], expressed as Ki, was 2950 pM.
Turning to `Cn1nc(C(C)(C)C)cc1C(=O)Nc1cccc(C(=O)c2ccc3c(/C=C/c4ccccn4)n[nH]c3c2)c1` [Example 41(n), 6-[3-((3-t-Butyl-1-methyl-1H-pyrazol-5-yl)carboxamido)benzoyl]-3-E-[2-(pyridin-2-yl)ethenyl]-1H-indazole], in series [3] (setting [5]), the AUClast worked out at 9408 ng·h/mL, the maximum concentration (Cmax) turned out to be 1976 ng/mL and the “plasma half-life (T1/2)” value turned out to be 3.2 h. In addition, in series [3] (setting [6]), the AUClast is 9066 ng·h/mL, the Cmax came out at 2245 ng/mL and the “plasma half-life (T1/2)” value came out at 1.9 h. Moreover, the concentration at 7 h in series [3] (setting [8]) was 465 ng/mL. The concentration at 7 h in series [3] (setting [9]) amounted to 253 ng/mL. For the same compound, the affinity in series [2] corresponds to a Ki of 200 pM.
On to `CC(C)(C)c1ccc(C(=O)Nc2cccc(C(=O)c3ccc4c(/C=C/c5ccccn5)n[nH]c4c3)c2)cc1` [Example 41(s), 6-[3-(4-t-Butylbenzanido)benzoyl]-3-E-[2-(pyridin-2-yl)ethenyl]-1H-indazole], for which the Ki in series [2] was determined as 230 pM.
In the case of `COc1cc(C(=O)Nc2cccc(C(=O)c3ccc4c(/C=C/c5ccccn5)n[nH]c4c3)c2)cc(Cl)n1` [Example 41(u), 6-[3-((2-Chloro-6-methoxypyridin-4-yl)carboxanido)benzoyl]-3-E-[2-(pyridin-2-yl)ethenyl]-1H-indazole], in series [3] (setting [12]), the AUClast is 875 ng·h/mL, the Cmax amounted to 224 ng/mL and the “plasma half-life (T1/2)” value came to 5.6 h. Moreover, in series [3] (setting [11]), the concentration at 7 h was 51 ng/mL. Moreover, the Ki in series [2] amounted to 80 pM.
As for `Cc1nc(/C=C/c2n[nH]c3cc(C(=O)c4cccc(NC(=O)c5ccccc5)c4)ccc23)cs1` [Example 42(c), 6-(3-Benzanidobenzoyl)-3-E-[2-(2-methylthiazol-4-yl)ethenyl]-1H-indazole], the IC50 in series [4] (setting [13]) was in the range of 1000 to 3000 pM. Also, in series [2], the inhibition at 0.05 µM stood at 95%.
Turning to `O=C(Nc1cccc(C(=O)c2ccc3c(-c4nc5cccnc5[nH]4)n[nH]c3c2)c1)c1ccccc1` [Example 42(d), 6-(3-Benzaniidobenzoyl)-3-(3H-imidazo[4,5-b]pyridin-2-yl)-1H-indazole], the figures for the AUClast in series [3] (setting [14]) and in series [3] (setting [15]) were 1774 ng·h/mL and 46 ng·h/mL, respectively. The “plasma half-life (T1/2)” value in series [3] (setting [14]) was 1.4 h; in series [3] (setting [15]) it was “BLQ”. Further, the concentration at 7 h in series [3] (setting [16]) was determined as 31 ng/mL; in series [3] (setting [17]), 18 ng/mL. The same compound had a Ki in series [2] of 1700 pM.

The record behind these values is US6534524B1, “Indazole compounds and pharmaceutical compositions for inhibiting protein kinases, and methods for their use” (Agouron Pharmaceuticals, Inc., priority 1999, dated 2003).
